Assay results reported in patent US20100094430A1, “Device” (priority 2006, published 2010).

Assay: Solubility of precursor compounds in methanol
Format: physicochemical
Method: Ca(dbm)2.4H2O (1 g) was weighed into a 250 mL conical flask. Methanol (50 mL) was added, the flask was stoppered and the solution was swirled for […]2 min. The solution was incubated in a water bath at varying temperatures (20°, 30° or 40° C.) for a period of 4 or 17 h. At the end of the incubation period, two 20 mL aliquots of the solution were filtered into separate, pre-weighed round bottomed flasks. […] Experiments for all conditions were carried out in duplicate. The results of the solubility experiments are compiled in Table 2.

O.O.O.O.O=C(C=C([O-])c1ccccc1)c1ccccc1.O=C(C=C([O-])c1ccccc1)c1ccccc1.[Ca+2] [Ca(dbm)2•4H2O, Ca(dbm)2.4H2O]
solubility in methanol (incubation 20° C., 4 h): 1.78 ± 0.1 g/100 mL
solubility in methanol (incubation 20° C., 17 h): 1.91 ± 0.5 g/100 mL
solubility in methanol (incubation 30° C., 4 h): 1.86 ± 0.1 g/100 mL
solubility in methanol (incubation 30° C., 17 h): 1.88 ± 0.5 g/100 mL
solubility in methanol (incubation 40° C., 4 h): 1.98 ± 0.2 g/100 mL
solubility in methanol (incubation 40° C., 17 h): 1.92 ± 0.4 g/100 mL
solubility in methanol relative to the acac and benzoylacetone calcium complexes (qualitative comparison): higher solubility
